According to patent US6821967B2, “Substituted piperazine derivatives, the preparation thereof and their use as medicaments” (Boehringer Ingelheim Pharma KG, priority 1999, dated 2004):

SMILES	melting point
O=C(NCC(F)(F)F)C1(CCCCN2CCN(c3nc4ccccc4o3)CC2)c2ccccc2-c2ccccc21 [Example 2, 9-[4-(4-(benzoxazol-2-yl)-piperazin-1-yl)-butyl]-9H-fluorene-9-carboxylic acid-(2,2,2-trifluoro-ethyl)-amide]	128 °C
O=C(NCC(F)(F)F)C1(CCCCN2CCN(c3ccc4ccccc4n3)CC2)c2ccccc2-c2ccccc21 [Example 3, 9-[4-(4-(quinolin-2-yl)-piperazin-1-yl)-butyl]-9H-fluorene-9-carboxylic acid-(2,2,2-trifluoro-ethyl)-amide]	56 to 57 °C
CCn1c(N2CCN(CCCCC3(C(=O)NCC(F)(F)F)c4ccccc4-c4ccccc43)CC2)nc2ccccc21 [Example 11, 9-{4-[4-(1-ethyl-1H-benzimidazol-2-yl)-piperazin-1-yl]-butyl}-9H-fluorene-9-carboxylic acid-(2,2,2-trifluoro-ethyl)-amide]	55 °C
O=C(NCC(F)(F)F)C1(CCCCN2CCN(c3nc4ccccc4n3Cc3ccccc3)CC2)c2ccccc2-c2ccccc21 [Example 13, 9-{4-[4-(1-benzyl-1H-benzimidazol-2-yl)-piperazin-1-yl]-butyl}-9H-fluorene-9-carboxylic acid-(2,2,2-trifluoro-ethyl)-amide]	60 °C
Cn1c(N2CCN(CCCCC3(C(=O)NCC(F)(F)F)c4ccccc4-c4ccccc43)CC2)nc2cccnc21 [Example 15, 9-{4-[4-(3-methyl-3H-imidazo[4,5]pyridin-2-yl)-piperazin-1-yl]-butyl}-9H-fluorene-9-carboxylic acid-(2,2,2-trifluoro-ethyl)-amide]	60 °C
Cn1c(N2CCN(CCCCC3(C(=O)NCC(F)(F)F)c4ccccc4-c4ccccc43)CC2)nc2ccc(F)cc21 [Example 17, 9-{4-[4-(6-fluoro-1-methyl-1H-benzimidazol-2-yl)-piperazin-1-yl]-butyl}-9H-fluorene-9-carboxylic acid-(2,2,2-trifluoro-ethyl)-amide]	54 °C
Cn1c(N2CCN(CCCCC3(C(=O)NCC(F)(F)F)c4ccccc4-c4ccccc43)CC2)nc2cc(F)ccc21 [Example 18, 9-{4-[4-(5-fluoro-1-methyl-1H-benzimidazol-2-yl)-piperazin-1-yl]-butyl}-9H-fluorene-9-carboxylic acid-(2,2,2-trifluoro-ethyl)-amide]	59 °C
Cn1c(N2CCN(CCCCC3(C(=O)NCC(F)(F)F)c4ccccc4-c4ccccc43)CC2)nc2cc(Cl)ccc21 [Example 19, 9-{4-[4-(5-chloro-1-methyl-1H-benzimidazol-2-yl)-piperazin-1-yl]-butyl}-9H-fluorene-9-carboxylic acid-(2,2,2-trifluoro-ethyl)-amide]	155 °C
COc1cccc2c1nc(N1CCN(CCCCC3(C(=O)NCC(F)(F)F)c4ccccc4-c4ccccc43)CC1)n2C [Example 20, 9-{4-[4-(4-methoxy-1-methyl-1H-benzimidazol-2-yl)-piperazin-1-yl]-butyl}-9H-fluorene-9-carboxylic acid-(2,2,2-trifluoro-ethyl)-amide]	146 °C
O=C(NCC(F)(F)F)C1(CCCCN2CCN(c3cnc4ccccc4n3)CC2)c2ccccc2-c2ccccc21 [Example 22, 9-[4-(4-quinoxalin-2-yl-piperazin-1-yl)-butyl]-9H-fluorene-9-carboxylic acid-(2,2,2-trifluoro-ethyl)-amide]	142 to 145 °C
O=C(NCC(F)(F)F)C1(CCCCN2CCN(c3cnc4c(Cl)cccc4n3)CC2)c2ccccc2-c2ccccc21 [Example 23, 9-{4-[4-(5-chloro-quinoxalin-2-yl)-piperazin-1-yl]-butyl}-9H-fluorene-9-carboxylic acid-(2,2,2-trifluoro-ethyl)-amide]	74 °C
O=C(NCC(F)(F)F)C1(CCCCN2CCN(c3nc4ccc(Cl)cc4s3)CC2)c2ccccc2-c2ccccc21 [Example 24, 9-{4-[4-(6-chloro-benzothiazol-2-yl)-piperazin-1-yl]-butyl}-9H-fluorene-9-carboxylic acid-(2,2,2-trifluoro-ethyl)-amide]	187 °C
O=C(NCC(F)(F)F)C1(CCCCN2CCN(c3cc(-c4ccccc4)c4ccccc4n3)CC2)c2ccccc2-c2ccccc21 [Example 25, 9-{4-[4-(4-phenyl-quinolin-2-yl)-piperazin-1-yl]-butyl}-9H-fluorene-9-carboxylic acid-(2,2,2-trifluoro-ethyl)-amide]	105 °C

Other lines, results leading:

melting point	SMILES
146 to 148 °C	O=C(NCC(F)(F)F)C1(CCCCN2CCN(c3ccc4ccc(Cl)cc4n3)CC2)c2ccccc2-c2ccccc21 [Example 26, 9-{4-[4-(7-chloro-quinolin-2-yl)-piperazin-1-yl]-butyl}-9H-fluorene-9-carboxylic acid-(2,2,2-trifluoro-ethyl)-amide]
142 to 143 °C	O=C(NCC(F)(F)F)C1(CCCCN2CCN(c3ccc4c(Cl)cccc4n3)CC2)c2ccccc2-c2ccccc21 [Example 27, 9-{4-[4-(5-chloro-quinolin-2-yl)-piperazin-1-yl]-butyl}-9H-fluorene-9-carboxylic acid-(2,2,2-trifluoro-ethyl)-amide]
151 °C	O=C(NCC(F)(F)F)C1(CCCCN2CCN(c3ccc4cc(Cl)ccc4n3)CC2)c2ccccc2-c2ccccc21 [Example 28, 9-{4-[4-(6-chloro-quinolin-2-yl)-piperazin-1-yl]-butyl}-9H-fluorene-9-carboxylic acid-(2,2,2-trifluoro-ethyl)-amide]
121 °C	O=C(NCC(F)(F)F)C1(CCCCN2CCN(c3ccc4cccc(Cl)c4n3)CC2)c2ccccc2-c2ccccc21 [Example 29, 9-{4-[4-(8-chloro-quinolin-2-yl)-piperazin-1-yl]-butyl}-9H-fluorene-9-carboxylic acid-(2,2,2-trifluoro-ethyl)-amide]
74 °C	COc1cccc2ccc(N3CCN(CCCCC4(C(=O)NCC(F)(F)F)c5ccccc5-c5ccccc54)CC3)nc12 [Example 30, 9-{4-[4-(8-methoxy-quinolin-2-yl)-piperazin-1-yl]-butyl}-9H-fluorene-9-carboxylic acid-(2,2,2-trifluoro-ethyl)-amide]
159 °C	O=C(NCC(F)(F)F)C1(CCCCN2CCN(c3ccc4cccc(O)c4n3)CC2)c2ccccc2-c2ccccc21 [Example 31, 9-{4-[4-(8-hydroxy-quinolin-2-yl)-piperazin-1-yl]-butyl}-9H-fluorene-9-carboxylic acid-(2,2,2-trifluoro-ethyl)-amide]
66 °C	O=C(NCC(F)(F)F)C1(CCCCN2CCN(c3ccc4cccc(Br)c4n3)CC2)c2ccccc2-c2ccccc21 [Example 32, 9-{4-[4-(8-bromo-quinolin-2-yl)-piperazin-1-yl]-butyl}-9H-fluorene-9-carboxylic acid-(2,2,2-trifluoro-ethyl)-amide]
67 °C	COc1cccc2ccc(N3CCN(CCCCC4(C(=O)NCC(F)(F)F)c5ccccc5-c5ccccc54)CC3)nc12 [Example 36, 9-{4-[4-(8-methoxy-quinolin-2-yl)-piperazin-1-yl]-butyl}-9H-fluorene-9-carboxylic acid-(2,2,2-trifluoro-ethyl)-amide]
102 °C	C[C@H]1CN(c2ccc3ccccc3n2)CCN1CCCCC1(C(=O)NCC(F)(F)F)c2ccccc2-c2ccccc21 [Example 38, 9-{4-[(S)-2-methyl-4-quinolin-2-yl-piperazin-1-yl]-butyl}-9H-fluorene-9-carboxylic acid-(2,2,2-trifluoro-ethyl)-amide]
102 °C	C[C@@H]1CN(c2ccc3ccccc3n2)CCN1CCCCC1(C(=O)NCC(F)(F)F)c2ccccc2-c2ccccc21 [Example 39, 9-{4-[(R)-2-methyl-4-quinolin-2-yl-piperazin-1-yl]-butyl}-9H-fluorene-9-carboxylic acid-(2,2,2-trifluoro-ethyl)-amide]
50 °C	CC1CN(CCCCC2(C(=O)NCC(F)(F)F)c3ccccc3-c3ccccc32)CCN1c1ccc2ccccc2n1 (stereo not drawn) [Example 40, 9-{4-[3-methyl-4-quinolin-2-yl-piperazin-1-yl]-butyl}-9H-fluorene-9-carboxylic acid-(2,2,2-trifluoro-ethyl)-amide]
169 °C	C[C@@H]1CN(c2ccc3ccccc3n2)C[C@H](C)N1CCCCC1(C(=O)NCC(F)(F)F)c2ccccc2-c2ccccc21 [Example 42, 9-[4-(cis-2,6-dimethyl-4-quinolin-2-yl-piperazin-1-yl)-butyl]-9H-fluorene-9-carboxylic acid-(2,2,2-trifluoro-ethyl)-amide]
77 °C	C[C@@H]1CN(c2nc3ccccc3n2C)C[C@H](C)N1CCCCC1(C(=O)NCC(F)(F)F)c2ccccc2-c2ccccc21 [Example 43, 9-{4-[cis-2,6-dimethyl-4-(1-methyl-1H-benzimidazol-2-yl)-piperazin-1-yl]-butyl}-9H-fluorene-9-carboxylic acid-(2,2,2-trifluoro-ethyl)-amide]
163 to 165 °C	C[C@@H]1CN(c2nc3ccccc3s2)C[C@H](C)N1CCCCC1(C(=O)NCC(F)(F)F)c2ccccc2-c2ccccc21 [Example 45, 9-[4-(4-benzothiazole-2-yl-cis-2,6-dimethyl-piperazin-1-yl)-butyl]-9H-fluorene-9-carboxylic acid-(2,2,2-trifluoro-ethyl)-amide]
163 to 165 °C	C[C@@H]1CN(c2nc3ccccc3o2)C[C@H](C)N1CCCCC1(C(=O)NCC(F)(F)F)c2ccccc2-c2ccccc21 [Example 46, 9-[4-(4-benzoxazol-2-yl-cis-2,6-dimethyl-piperazin-1-yl)-butyl]-9H-fluorene-9-carboxylic acid-(2,2,2-trifluoro-ethyl)-amide]
174 °C	C[C@@H]1CN(c2ncc3ccccc3n2)C[C@H](C)N1CCCCC1(C(=O)NCC(F)(F)F)c2ccccc2-c2ccccc21 [Example 47, 9-[4-(cis-2,6-dimethyl-4-quinazolin-2-yl-piperazin-1-yl)-butyl]-9H-fluorene-9-carboxylic acid-(2,2,2-trifluoro-ethyl)-amide]
58 °C	O=C(NCc1ccc(F)cc1)C1(CCCCN2CCN(c3ccc4ccccc4n3)CC2)c2ccccc2-c2ccccc21 [Example 53, 9-[4-(4-quinolin-2-yl-piperazin-1-yl)-butyl]-9H-fluorene-9-carboxylic acid-4-fluoro-benzylamide]
